Experimental findings from patent US9290490B2 (Merck Sharp & Dohme Corp., priority 2011, dated 2016) are described below.

Like-named read-outs stand apart in the source and are kept apart here.

The target in this assay is recombinant human GST-Syk (Homo sapiens (Human), UniProt P43405). The assay is described as follows: Homogeneous Time-Resolved Fluorescence (HTRF) Assay for the Recombinant Human Syk Enzyme. In kind it is biochemical. To be noted: recombinant human GST-Syk 5 pM, ATP 25 μM. The protocol:
Homogeneous Time-Resolved Fluorescence (HTRF) Assay for the Recombinant Human Syk Enzyme:
A recombinant GST-hSyk fusion protein was used to measure potency of compounds to inhibit human Syk activity. The recombinant human GST-Syk (Carna Biosciences #08-176) (5 pM final concentration) was incubated with various concentrations of the inhibitor diluted in DMSO (0.1% final concentration) for 10 minutes at room temperature in 15 mM Tris-HCl (pH 7.5), 0.01% tween 20, 2 mM DTT in 384 well plate format. To initiate the reaction the biotinylated substrate peptide (250 nM final concentration) that contains the phosphorylation site for Syk was added with magnesium (5 mM final concentration) and ATP (25 μM final concentration). Final volume of the reaction was 10 μL. Phosphorylation of the peptide was allowed to proceed for 45′ at room temperature. To quench the reaction and detect the phosphorylated product, 2 nM of a Europium-anti-phosphotyrosine antibody (Perkin Elmer #AD0161) and 70 nM SA-APC (Perkin-Elmer #CR130-100) were added together in 15 mM Tris pH 7.5, 40 mM EDTA, 0.01% Tween 20. Final volume of the quenching solution was 10 μL. The resulting HTRF signal was measured after 30 minutes on a EnVision (Perkin-Elmer) reader using a time-resolved fluorescence protocol. […] IC50 values are also provided for the following representative compounds: […]
A general note: In TR-FRET formats the signal depends on donor and acceptor labels being close together.

[1] abbreviates: read-out: rhSyk Activity (IC50).
The mark [2] stands for this setting: 10-dose titration, read-out: rhSyk.

Turning to `Cc1cc(Nc2nccc(C(F)(F)F)n2)cc(-c2cnc([C@@](O)(C3CC3)[C@H]3CC[C@H](C(=O)O)CC3)s2)c1` (single isomer, unassigned) [Example 2 (from Intermediate 28 slower eluting enantiomer), trans-4-{(R or S)-cyclopropyl(hydroxy)[5-(3-methyl-5-{[4-(trifluoromethyl)pyrimidin-2-yl]amino}phenyl)-1,3-thiazol-2-yl]methyl}cyclohexanecarboxylic], under setting [1], the IC50 is not above 100 nM.
Still for that read-out and setting: in the case of `Cc1cc(Nc2nccc(C(F)(F)F)n2)cc(-c2cnc(C(C)(O)C3CCC(C(=O)O)C3)s2)c1` (stereo not shown) [Example 3-1] it was not above 100 nM.
On the same count and under the same terms, in the case of `Cc1cc(Nc2nccc(C(F)(F)F)n2)cc(-c2cncs2)c1` [Intermediate 21, N-[3-methyl-5-(1,3-thiazol-5-yl)phenyl]-4-(trifluoromethyl)pyrimidin-2-amine] it was not above 100 nM; in that of `Cc1cc(Nc2nccc(C)n2)cc(-c2cnc(CC3(O)CCC(C(=O)OC(C)(C)C)CC3)s2)c1` (single isomer, unassigned) [Example 5, Step 3 (cis isomer), tert-butyl cis-4-hydroxy-4-[(5-{3-methyl-5-[(4-methylpyrimidin-2-yl)amino]phenyl}-1,3-thiazol-2-yl)methyl]cyclohexanecarboxylate], 100 to 1000 nM.
As to `CC(O)(c1ncc(-c2cc(Nc3nccc(C(F)(F)F)n3)cc(C(F)F)c2)s1)[C@H]1CC[C@H](C(=O)O)CC1` (single isomer, unassigned) [Example 18, trans-4-((1R or 1S)-{5-[3-(difluoromethyl)-5-{[4-(trifluoromethyl)pyrimidin-2-yl]amino}phenyl]-1,3-thiazol-2-yl}-1-hydroxyethyl)cyclohexanecarboxylic acid], the IC50 was less than 0.5 nM under setting [2] and not above 100 nM under setting [1].
On the same counts, the results for `CC(O)(c1ncc(-c2cc(Nc3nccc(C(F)(F)F)n3)cc(C3CC3)c2)s1)[C@H]1CC[C@H](C(=O)O)CC1` (single isomer, unassigned) [Example 16, trans-4-{(1R or 1S)-[5-(3-cyclopropyl-5-{[4-(trifluoromethyl)pyrimidin-2-yl]amino}phenyl)-1,3-thiazol-2-yl]-1-hydroxyethyl}cyclohexanecarboxylic acid] are 1 nM and not above 100 nM.
On to `Cc1cc(Nc2ncc(Cl)c(C)n2)cc(-c2cnc(C(C)(O)C3CCC(C(=O)O)CC3)s2)c1` (stereo not shown) [Example 2-60], for which the IC50 reads like this: under setting [2], 5 nM; under setting [1], not above 100 nM.
As for `Cc1cc(Nc2nccc(C(F)F)n2)cc(-c2cnc(C(C)(O)[C@H]3CC[C@H](C(=O)O)CC3)s2)c1Br` (stereo partly shown) [Example 8-1], the IC50 under setting [1] was not above 100 nM.
Still for that read-out and setting: in the case of `Cc1cc(Nc2nccc(C(F)(F)F)n2)cc(-c2cnc([C@@](O)(C3CC3)[C@H]3CC[C@H](C(=O)O)CC3)s2)c1` (single isomer, unassigned) [Example 2 (from Intermediate 28 faster eluting enantiomer), trans-4-{(R or S)-cyclopropyl(hydroxy)[5-(3-methyl-5-{[4-(trifluoromethyl)pyrimidin-2-yl]amino}phenyl)-1,3-thiazol-2-yl]methyl}cyclohexanecarboxylic acid] it was not above 100 nM.
As to `CCOC(=O)C1CCC(Cc2ncc(-c3cc(C)cc(Nc4nccc(C)n4)c3)s2)CC1` (stereo not shown) [Example 13, step 2, ethyl 4-[(5-{3-methyl-5-[(4-methylpyrimidin-2-yl)amino]phenyl}-1,3-thiazol-2-yl)methyl]cyclohexanecarboxylate], the IC50 is 301 nM under setting [2] and 100 to 1000 nM under setting [1].
On to `Cc1cc(Nc2nccc(C(F)(F)F)n2)cc(-c2cnc(C(O)[C@H]3CC[C@@H](C(N)=O)CC3)s2)c1` [Example 7 (cis isomer), cis-4-{hydroxy[5-(3-methyl-5-{[4-(trifluoromethyl)pyrimidin-2-yl]amino}phenyl)-1,3-thiazol-2-yl]methyl}cyclohexanecarboxamide], for which the IC50 under setting [1] was not above 100 nM.
Turning to `COC(=O)[C@@H]1CC(C(=O)c2ncc(-c3cc(C)cc(Nc4nccc(C(F)(F)F)n4)c3)s2)[C@H](O)C1(C)C` (stereo partly drawn) [Example 14, methyl (1,3-cis, 1,4-trans)-3-hydroxy-2,2-dimethyl-4-{[5-(3-methyl-5-{[4-(trifluoromethyl)-pyrimidin-2-yl]amino}phenyl)-1,3-thiazol-2-yl]carbonyl}cyclopentanecarboxylate], the IC50 was 850 nM under setting [2] and 100 to 1000 nM under setting [1].
For the compound `Cc1cc(Nc2nccc(C(F)(F)F)n2)cc(-c2cnc(C(O)[C@H]3CC[C@H](C(N)=O)CC3)s2)c1` [Example 7 (trans isomer), trans-4-{hydroxy[5-(3-methyl-5-{[4-(trifluoromethyl)pyrimidin-2-yl]amino}phenyl)-1,3-thiazol-2-yl]methyl}cyclohexanecarboxamide], the IC50 was 35 nM under setting [2] and not above 100 nM under setting [1].
As to `Cc1cc(Nc2nccc(C(F)(F)F)n2)cc(-c2cnc(C(C)(O)C3CCC(C(=O)O)C3)s2)c1` (stereo not shown) [Example 3-3], under setting [1], the IC50 was not above 100 nM.
With `C[C@@](O)(c1ncc(-c2cc(F)cc(Nc3nccc(C(F)(F)F)n3)c2)s1)[C@H]1CC[C@H](C(=O)O)CC1` (single isomer, unassigned) [Example 17, trans-4-{(1R or 1S)-1-[5-(3-fluoro-5-{[4-(trifluoromethyl)pyrimidin-2-yl]amino}phenyl)-1,3-thiazol-2-yl]-1-hydroxyethyl}cyclohexanecarboxylic acid], the IC50 is 1 nM under setting [2] and not above 100 nM under setting [1].
With `Cc1cc(Nc2nccc(C(F)(F)F)n2)cc(-c2cnc(C(C)(O)C3CCC(C)(C(=O)O)CC3)s2)c1` (stereo not shown) [Example 3-5], the IC50 under setting [1] is not above 100 nM.
For the compound `Cc1cc(Nc2ncc(F)c(C)n2)cc(-c2cnc(C(O)(CO)C3CCC(C(=O)O)CC3)s2)c1` (stereo not shown) [Example 2-109], the IC50 runs as follows: under setting [2], 15 nM; under setting [1], not above 100 nM.
Consider `Cc1cc(Nc2nccc(C)n2)cc(-c2cnc(C(C)(O)[C@H]3CC[C@H](C(=O)O)CC3)s2)c1` (single isomer, unassigned) [Example 2-52, trans-4-[(1R or S)-hydroxy-1-(5-{3-methyl-5-[(4-methylpyrimidin-2-yl)amino]phenyl}-1,3-thiazol-2-yl)ethyl]cyclohexanecarboxylic acid], for which the IC50 is 1 nM under setting [2] and not above 100 nM under setting [1].
On the same counts, the results for `C[C@](O)(c1ncc(-c2cc(CO)cc(Nc3nccc(C(F)(F)F)n3)c2)s1)[C@H]1CC[C@H](C(=O)O)CC1` (single isomer, unassigned) [Example 15, trans-4-[(1R or 1S)-1-hydroxy-1-{5-[3-(hydroxymethyl)-5-{[4-(trifluoromethyl)pyrimidin-2-yl]amino}phenyl]-1,3-thiazol-2-yl}ethyl]cyclohexanecarboxylic acid] are less than 0.5 nM and not above 100 nM.
On the same counts, the results for `Cc1cc(Nc2nccc(C)n2)cc(-c2cnc(C(C)(O)C3CCC(C(=O)O)CC3)s2)c1` (stereo not shown) [Example 2-53] are 13 nM and not above 100 nM.
`Cc1cc(Nc2nccc(C)n2)cc(-c2cnc(C[C@]3(O)CC[C@@H](C(=O)O)CC3)s2)c1` [Example 5 (cis isomer), cis-4-hydroxy-4-[(5-{3-methyl-5-[(4-methylpyrimidin-2-yl)amino]phenyl}-1,3-thiazol-2-yl)methyl]cyclohexanecarboxylic acid]: the IC50 under setting [1] was not above 100 nM.
In the case of `Cc1cc(Nc2nccc(C(F)(F)F)n2)cc(-c2cnc(C(F)C3CCC(C(=O)O)CC3)s2)c1` (stereo not shown) [Example 4-6], the IC50 was 2 nM under setting [2] and not above 100 nM under setting [1].
Take `Cc1cc(Nc2nccc(C)n2)cc(-c2cnc(C[C@H]3CC[C@H](C(=O)O)CC3)s2)c1` (single isomer, unassigned) [Example 13 (trans, slower eluting isomer), trans-4-[(5-{3-methyl-5-[(4-methylpyrimidin-2-yl)amino]-phenyl}-1,3-thiazol-2-yl)methyl]cyclohexanecarboxylic acid]: the IC50 under setting [1] is not above 100 nM.
Consider `Cc1cc(Nc2nccc(C(F)(F)F)n2)cc(-c2cnc(C(O)C3CCC4(CC3)OCCO4)s2)c1` (stereo not shown) [Example 22, 1,4-dioxaspiro[4.5]dec-8-yl[5-(3-methyl-5-{[4-(trifluoromethyl)pyrimidin-2-yl]amino}phenyl)-1,3-thiazol-2-yl]methanol], for which the IC50 was 197 nM under setting [2] and 100 to 1000 nM under setting [1].
For `Cc1cc(Nc2nccc(C(F)(F)F)n2)cc(-c2cnc(C(C)(O)C3CCC(C)(C(=O)O)CC3)s2)c1` (single isomer, unassigned) [Example 3 (isomer 3), 4-{1-hydroxy-1-[5-(3-methyl-5-{[4-(trifluoromethyl)pyrimidin-2-yl]amino}phenyl)-1,3-thiazol-2-yl]ethyl}-1-methylcyclohexanecarboxylic acid], the IC50 under setting [1] was not above 100 nM.
For `Cc1cc(Nc2nccc(C)n2)cc(-c2cnc(C(O)(C3CCC(C(=O)O)CC3)C(F)(F)F)s2)c1` (stereo not shown) [Example 2-101], the IC50 by setting is: under setting [2], 2 nM; under setting [1], not above 100 nM.
Regarding `Cc1cc(Nc2nccc(C(F)(F)F)n2)cc(-c2cnc(C(C)(O)C3CCC(C(=O)O)C3)s2)c1` (stereo not shown) [Example 3-4], the IC50 under setting [1] was not above 100 nM.
Turning to `CCC(=O)O[C@@H]1CCC(C(C)(O)c2ncc(-c3cc(C)cc(Nc4nccc(C)n4)c3)s2)C[C@H]1C` (stereo partly shown) [Example 2-16], the IC50 was 93 nM under setting [2] and not above 100 nM under setting [1].
